Literature values in US12458027B2, “Glyphosate composition for dicamba tank mixtures with improved volatility” (Monsanto Technology LLC, priority 2013, dated 2025).

Conditions: 25° C.

O=C(O)CNCP(=O)(O)O [Glyphosate acid, N-(phosphonomethyl)glycine]
solubility in water: about 1.16 wt. %
